Results taken from ChEMBL document CHEMBL6109078, “Pyrylium derivatives as outer membrane permeabilizers against MDR gram-negative bacteria via multi-target mode of action” (Eur J Med Chem, 2025).
Calls of active or inactive are those of the source. The calls are words filed in the database; no cut-off is given here.

Assays:
Acinetobacter baumannii [1] = test: Synergistic antibacterial activity against multi-drug resistant Acinetobacter baumannii clinical isolate 1 assessed as fractional inhibitory concentration index in presence of polymyxin B by checkerboard assay; assay type: functional
Acinetobacter baumannii [2] = test: Synergistic antibacterial activity against multi-drug resistant Acinetobacter baumannii clinical isolate 1 assessed as fractional inhibitory concentration index in presence of amikacin by checkerboard assay; assay type: functional
Escherichia coli [3] = test: Synergistic antibacterial activity against Escherichia coli CG-4 expressing MCR-1 and NDM-1 assessed as fractional inhibitory concentration index in presence of polymyxin B by checkerboard assay; assay type: functional
Acinetobacter baumannii [4] = test: Synergistic antibacterial activity against multi-drug resistant Acinetobacter baumannii clinical isolate 5 assessed as inhibition of bacterial growth by measuring polymyxin B MIC by checkerboard assay; assay type: functional
Escherichia coli [5] = test: Synergistic antibacterial activity against Escherichia coli CG-4 expressing MCR-1 and NDM-1 assessed as inhibition of bacterial growth by measuring polymyxin B MIC by checkerboard assay; assay type: functional
Escherichia coli [6] = test: Antibacterial activity against multi-drug resistant Escherichia coli clinical isolate 1 assessed as inhibition of bacterial growth by CLSI protocol based method; assay type: functional
Acinetobacter baumannii [7] = test: Antibacterial activity against multi-drug resistant Acinetobacter baumannii clinical isolate 51 assessed as inhibition of bacterial growth by CLSI protocol based method; assay type: functional
Acinetobacter baumannii [8] = test: Antibacterial activity against multi-drug resistant Acinetobacter baumannii clinical isolate 14 assessed as inhibition of bacterial growth by CLSI protocol based method; assay type: functional
Escherichia coli [9] = test: Synergistic antibacterial activity against Escherichia coli ATCC 35218 assessed as inhibition of bacterial growth in presence of polymyxin B by checkerboard assay; assay type: functional
Pseudomonas aeruginosa [10] = test: Synergistic antibacterial activity against Pseudomonas aeruginosa assessed as inhibition of bacterial growth in presence of polymyxin B by checkerboard assay; assay type: functional, organism-based
Escherichia coli [11] = test: Synergistic antibacterial activity against Escherichia coli ATCC 35218 assessed as fractional inhibitory concentration index in presence of amikacin by checkerboard assay; assay type: functional
Escherichia coli [12] = test: Synergistic antibacterial activity against Escherichia coli ATCC 25922 assessed as inhibition of bacterial growth in presence of polymyxin B by checkerboard assay; assay type: functional
Acinetobacter baumannii [13] = test: Synergistic antibacterial activity against Acinetobacter baumannii ATCC 19606 assessed as inhibition of bacterial growth by measuring polymyxin B MIC by checkerboard assay; assay type: functional
Pseudomonas aeruginosa [14] = test: Antibacterial activity Pseudomonas aeruginosa PAO1 assessed as inhibition of bacterial growth by CLSI protocol based method; assay type: functional
Escherichia coli [15] = test: Synergistic antibacterial activity against Escherichia coli ATCC 25922 assessed as fractional inhibitory concentration index in presence of gentamycin by checkerboard assay; assay type: functional
Acinetobacter baumannii [16] = test: Synergistic antibacterial activity against multi-drug resistant Acinetobacter baumannii clinical isolate 43 assessed as inhibition of bacterial growth by measuring polymyxin B MIC by checkerboard assay; assay type: functional
Acinetobacter baumannii [17] = test: Antibacterial activity against Acinetobacter baumannii ATCC 19606 assessed as inhibition of bacterial growth by measuring decrease in bacterial count at 6.25 to 50 microg/ml measured after 12 hrs by time-kill kinetics analysis; assay type: functional; conditions: dose 6.25-50 µg/ml
Escherichia coli [18] = test: Synergistic antibacterial activity against multi-drug resistant Escherichia coli clinical isolate 1 assessed as fractional inhibitory concentration index in presence of gentamycin by checkerboard assay; assay type: functional
Escherichia coli [19] = test: Synergistic antibacterial activity against Escherichia coli CG-4 expressing MCR-1 and NDM-1 assessed as fractional inhibitory concentration index in presence of […] by checkerboard assay; assay type: functional
Escherichia coli [20] = test: Synergistic antibacterial activity against multi-drug resistant Escherichia coli clinical isolate 1 assessed as fractional inhibitory concentration index in presence of amikacin by checkerboard assay; assay type: functional
Escherichia coli [21] = test: Antibacterial activity against Escherichia coli ATCC 25922 assessed as inhibition of bacterial growth by CLSI protocol based method; assay type: functional
Acinetobacter baumannii [22] = test: Synergistic antibacterial activity against Acinetobacter baumannii ATCC 19606 assessed as fractional inhibitory concentration index in presence of amikacin by checkerboard assay; assay type: functional
Acinetobacter baumannii [23] = test: Antibacterial activity against multi-drug resistant Acinetobacter baumannii clinical isolate 1 assessed as inhibition of bacterial growth by CLSI protocol based method; assay type: functional
Acinetobacter baumannii [24] = test: Synergistic antibacterial activity against multi-drug resistant Acinetobacter baumannii clinical isolate 43 assessed as inhibition of bacterial growth in presence of polymyxin B by checkerboard assay; assay type: functional
Pseudomonas aeruginosa [25] = test: Synergistic antibacterial activity against Pseudomonas aeruginosa assessed as inhibition of bacterial growth in presence of aminoglycoside by checkerboard assay; assay type: functional, organism-based
Acinetobacter baumannii [26] = test: Antibacterial activity against multi-drug resistant Acinetobacter baumannii clinical isolate 5 assessed as inhibition of bacterial growth by CLSI protocol based method; assay type: functional
Pseudomonas aeruginosa [27] = test: Antibacterial activity Pseudomonas aeruginosa ATCC 27853 assessed as inhibition of bacterial growth by CLSI protocol based method; assay type: functional
Klebsiella pneumoniae [28] = test: Antibacterial activity against Klebsiella pneumoniae ATCC 700603 assessed as inhibition of bacterial growth by CLSI protocol based method; assay type: functional
Acinetobacter baumannii [29] = test: Synergistic antibacterial activity against multi-drug resistant Acinetobacter baumannii clinical isolate 5 assessed as fractional inhibitory concentration index in presence of gentamycin by checkerboard assay; assay type: functional
Acinetobacter baumannii [30] = test: Antibacterial activity against multi-drug resistant Acinetobacter baumannii clinical isolate 4 assessed as inhibition of bacterial growth by CLSI protocol based method; assay type: functional
Acinetobacter baumannii [31] = test: Synergistic antibacterial activity against multi-drug resistant Acinetobacter baumannii clinical isolate 14 assessed as fractional inhibitory concentration index in presence of gentamycin by checkerboard assay; assay type: functional
Acinetobacter baumannii [32] = test: Synergistic antibacterial activity against multi-drug resistant Acinetobacter baumannii clinical isolate 14 assessed as inhibition of bacterial growth in presence of polymyxin B by checkerboard assay; assay type: functional
Acinetobacter baumannii [33] = test: Synergistic antibacterial activity against multi-drug resistant Acinetobacter baumannii clinical isolate 43 assessed as fractional inhibitory concentration index in presence of gentamycin by checkerboard assay; assay type: functional
Acinetobacter baumannii [34] = test: Synergistic antibacterial activity against multi-drug resistant Acinetobacter baumannii clinical isolate 1 assessed as fractional inhibitory concentration index in presence of gentamycin by checkerboard assay; assay type: functional
Acinetobacter baumannii [35] = test: Synergistic antibacterial activity against multi-drug resistant Acinetobacter baumannii clinical isolate 43 assessed as fractional inhibitory concentration index in presence of amikacin by checkerboard assay; assay type: functional
Acinetobacter baumannii [36] = test: Synergistic antibacterial activity against Acinetobacter baumannii ATCC 19606 assessed as fractional inhibitory concentration index in presence of polymyxin B by checkerboard assay; assay type: functional
Escherichia coli [37] = test: Antibacterial activity against Escherichia coli CG-4 expressing MCR-1 and NDM-1 assessed as inhibition of bacterial growth by CLSI protocol based method; assay type: functional
Escherichia coli [38] = test: Synergistic antibacterial activity against Escherichia coli CG-4 expressing MCR-1 and NDM-1 assessed as inhibition of bacterial growth in presence of polymyxin B by checkerboard assay; assay type: functional
Klebsiella pneumoniae [39] = test: Synergistic antibacterial activity against Klebsiella pneumoniae assessed as inhibition of bacterial growth in presence of aminoglycoside by checkerboard assay; assay type: functional, organism-based
Acinetobacter baumannii [40] = test: Synergistic antibacterial activity against Acinetobacter baumannii ATCC 19606 assessed as inhibition of bacterial growth in presence of polymyxin B by checkerboard assay; assay type: functional
Acinetobacter baumannii [41] = test: Synergistic antibacterial activity against multi-drug resistant Acinetobacter baumannii clinical isolate 5 assessed as fractional inhibitory concentration index in presence of polymyxin B by checkerboard assay; assay type: functional
Escherichia coli [42] = test: Synergistic antibacterial activity against Escherichia coli ATCC 35218 assessed as inhibition of bacterial growth by measuring polymyxin B MIC by checkerboard assay; assay type: functional

## CN1CCOc2cc(/C=C/c3cc(C(C)(C)C)[o+]c(C(C)(C)C)c3)ccc21.O=S(=O)([O-])C(F)(F)F
Acinetobacter baumannii [1]
  fractional inhibitory concentration index (FICI): <0.126
Acinetobacter baumannii [2]
  fractional inhibitory concentration index (FICI): 0.125
Escherichia coli [3]
  fractional inhibitory concentration index (FICI): 0.156
Acinetobacter baumannii [4]
  MIC: 0.006 µg/mL
Escherichia coli [5]
  MIC: 0.031 µg/mL
Escherichia coli [6]
  MIC: ≥ 100 µg/mL
Acinetobacter baumannii [7]
  MIC: 50 µg/mL
Acinetobacter baumannii [8]
  MIC: 100 µg/mL
Escherichia coli [9]
  MIC: 6.25 µg/mL
Pseudomonas aeruginosa [10]
  Activity: inactive
Escherichia coli [11]
  fractional inhibitory concentration index (FICI): 0.125
Escherichia coli [12]
  MIC: 12.5 µg/mL
Acinetobacter baumannii [13]
  MIC: 0.006 µg/mL
Pseudomonas aeruginosa [14]
  MIC: > 100 µg/mL
Escherichia coli [15]
  fractional inhibitory concentration index (FICI): 0.125
Acinetobacter baumannii [16]
  MIC: 1 10^-4 ug/ml
Acinetobacter baumannii [17]
  Activity: <6 log10CFU/ml
Escherichia coli [18]
  fractional inhibitory concentration index (FICI): 0.125
Escherichia coli [19]
  fractional inhibitory concentration index (FICI): 0.125
Escherichia coli [20]
  fractional inhibitory concentration index (FICI): 0.125
Escherichia coli [21]
  MIC: 50 µg/mL
Acinetobacter baumannii [22]
  fractional inhibitory concentration index (FICI): 0.125
Acinetobacter baumannii [23]
  MIC: 100 µg/mL
Acinetobacter baumannii [24]
  MIC: 25 µg/mL
Pseudomonas aeruginosa [25]
  Activity: inactive
Acinetobacter baumannii [26]
  MIC: 50 µg/mL
Pseudomonas aeruginosa [27]
  MIC: > 100 µg/mL
Klebsiella pneumoniae [28]
  MIC: > 100 µg/mL
Acinetobacter baumannii [29]
  fractional inhibitory concentration index (FICI): 0.125
Acinetobacter baumannii [30]
  MIC: 100 µg/mL
Acinetobacter baumannii [31]
  fractional inhibitory concentration index (FICI): 0.125
Acinetobacter baumannii [32]
  MIC: 12.5 µg/mL
Acinetobacter baumannii [33]
  fractional inhibitory concentration index (FICI): 0.125
Acinetobacter baumannii [34]
  fractional inhibitory concentration index (FICI): 0.125
Acinetobacter baumannii [35]
  fractional inhibitory concentration index (FICI): 0.125
Acinetobacter baumannii [36]
  fractional inhibitory concentration index (FICI): 0.25
Escherichia coli [37]
  MIC: 25 µg/mL
Escherichia coli [38]
  MIC: 3.13 µg/mL
Klebsiella pneumoniae [39]
  Activity: inactive
Acinetobacter baumannii [40]
  MIC: 6.25 µg/mL
Acinetobacter baumannii [41]
  fractional inhibitory concentration index (FICI): 0.25
Escherichia coli [42]
  MIC: 63 10^-4 ug/ml

## CC(C)(C)c1cc(/C=C/c2ccc(N3CCCC3)cc2)cc(C(C)(C)C)[o+]1.O=S(=O)([O-])C(F)(F)F
Acinetobacter baumannii [1]
  fractional inhibitory concentration index (FICI): <0.266
Acinetobacter baumannii [2]
  fractional inhibitory concentration index (FICI): 0.125
Escherichia coli [3]
  fractional inhibitory concentration index (FICI): 0.188
Acinetobacter baumannii [4]
  MIC: 0.003 µg/mL
Escherichia coli [5]
  MIC: 0.39 µg/mL
Escherichia coli [6]
  MIC: ≥ 100 µg/mL
Acinetobacter baumannii [7]
  MIC: 12.5 µg/mL
Acinetobacter baumannii [8]
  MIC: 6.25 µg/mL
Escherichia coli [9]
  MIC: 3.13 µg/mL
Pseudomonas aeruginosa [10]
  Activity: inactive
Escherichia coli [11]
  fractional inhibitory concentration index (FICI): 0.125
Escherichia coli [12]
  MIC: 1.56 µg/mL
Acinetobacter baumannii [13]
  MIC: 0.002 µg/mL
Pseudomonas aeruginosa [14]
  MIC: > 100 µg/mL
Escherichia coli [15]
  fractional inhibitory concentration index (FICI): 0.125
Acinetobacter baumannii [16]
  MIC: 1 10^-4 ug/ml
Acinetobacter baumannii [17]
  Activity: <6 log10CFU/ml
Escherichia coli [18]
  fractional inhibitory concentration index (FICI): 0.125
Escherichia coli [19]
  fractional inhibitory concentration index (FICI): 0.125
Escherichia coli [20]
  fractional inhibitory concentration index (FICI): 0.125
Escherichia coli [21]
  MIC: 12.5 µg/mL
Acinetobacter baumannii [22]
  fractional inhibitory concentration index (FICI): 0.125
Acinetobacter baumannii [23]
  MIC: 12.5 µg/mL
Acinetobacter baumannii [24]
  MIC: 6.25 µg/mL
Pseudomonas aeruginosa [25]
  Activity: inactive
Acinetobacter baumannii [26]
  MIC: 6.25 µg/mL
Pseudomonas aeruginosa [27]
  MIC: > 100 µg/mL
Klebsiella pneumoniae [28]
  MIC: > 100 µg/mL
Acinetobacter baumannii [29]
  fractional inhibitory concentration index (FICI): 0.125
Acinetobacter baumannii [30]
  MIC: 12.5 µg/mL
Acinetobacter baumannii [31]
  fractional inhibitory concentration index (FICI): 0.125
Acinetobacter baumannii [32]
  MIC: 1.56 µg/mL
Acinetobacter baumannii [33]
  fractional inhibitory concentration index (FICI): 0.125
Acinetobacter baumannii [34]
  fractional inhibitory concentration index (FICI): 0.125
Acinetobacter baumannii [35]
  fractional inhibitory concentration index (FICI): 0.125
Acinetobacter baumannii [36]
  fractional inhibitory concentration index (FICI): 0.156
Escherichia coli [37]
  MIC: 6.25 µg/mL
Escherichia coli [38]
  MIC: 0.78 µg/mL
Klebsiella pneumoniae [39]
  Activity: inactive
Acinetobacter baumannii [40]
  MIC: 1.56 µg/mL
Acinetobacter baumannii [41]
  fractional inhibitory concentration index (FICI): 0.313
Escherichia coli [42]
  MIC: 63 10^-4 ug/ml
